Results published in patent US10035777B2, “Heterocyclic kinase inhibitors” (priority 2014, dated 2018).

biological target: GST-Xa-hAAK1 (Homo sapiens (Human), UniProt Q2M2I8); test: biochemical; conditions: not given
Description: The assays were performed in U-bottom 384-well plates. […] The reactions were initiated by the combination of bacterially expressed, GST-Xa-hAAK1 with substrates and test compounds. The reactions were incubated at room temperature for 3 hours and terminated by adding 60 μl of 35 mM EDTA buffer to each sample. The reactions were analyzed on the Caliper LabChip 3000 (Caliper, Hopkinton, Mass.) by electrophoretic separation of the fluorescent substrate and phosphorylated product. […] Compounds were dissolved at 10 mM in dimethylsulfoxide (DMSO) and evaluated at eleven concentrations. IC50 values were derived by non-linear regression analysis.

GST-Xa-hAAK1, sequence (Q2M2I8 whole entry): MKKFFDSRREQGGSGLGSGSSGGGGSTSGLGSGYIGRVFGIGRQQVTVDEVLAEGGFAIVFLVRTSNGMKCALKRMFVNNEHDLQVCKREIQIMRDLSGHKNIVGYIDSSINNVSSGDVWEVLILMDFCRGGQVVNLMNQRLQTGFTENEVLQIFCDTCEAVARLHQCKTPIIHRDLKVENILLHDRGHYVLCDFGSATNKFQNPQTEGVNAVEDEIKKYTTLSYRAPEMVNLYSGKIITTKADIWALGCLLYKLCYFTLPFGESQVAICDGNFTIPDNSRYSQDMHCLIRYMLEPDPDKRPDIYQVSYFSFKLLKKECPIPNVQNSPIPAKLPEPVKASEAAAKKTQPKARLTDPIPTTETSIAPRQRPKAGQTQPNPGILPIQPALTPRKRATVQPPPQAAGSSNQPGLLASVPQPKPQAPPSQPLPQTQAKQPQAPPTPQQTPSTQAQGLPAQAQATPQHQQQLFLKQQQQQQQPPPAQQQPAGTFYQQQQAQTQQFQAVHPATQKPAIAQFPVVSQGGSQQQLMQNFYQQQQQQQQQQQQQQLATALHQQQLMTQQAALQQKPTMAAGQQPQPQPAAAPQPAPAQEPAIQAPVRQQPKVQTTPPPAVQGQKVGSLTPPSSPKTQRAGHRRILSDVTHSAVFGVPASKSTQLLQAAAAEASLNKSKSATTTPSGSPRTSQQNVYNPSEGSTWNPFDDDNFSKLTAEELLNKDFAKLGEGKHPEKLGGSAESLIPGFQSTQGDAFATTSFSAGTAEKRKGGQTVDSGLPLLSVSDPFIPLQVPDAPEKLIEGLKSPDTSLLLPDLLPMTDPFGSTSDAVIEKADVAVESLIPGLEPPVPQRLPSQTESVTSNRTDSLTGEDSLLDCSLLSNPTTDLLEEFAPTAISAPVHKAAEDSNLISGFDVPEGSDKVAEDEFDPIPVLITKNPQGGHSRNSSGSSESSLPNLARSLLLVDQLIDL

**Q.** Which IC50 does the source give for CC(C)C[C@H](N)c1nc2cc(-c3ccncc3)ccc2s1 [Example 97, (S)-3-methyl-1-(5-(pyridin-4-yl)benzo[d]thiazol-2-yl) butan-1-amine] here?
**A.** Its IC50 is 116 nM.

**Q.** With CC(C)CC(N)c1nc2ccc(-c3ccncc3)cc2s1 (stereo not shown) [Example 98, 3-methyl-1-(6-(pyridin-4-yl)benzo[d]thiazol-2-yl)butan-1-amine] as the compound, how does the IC50 read?
**A.** Its IC50 is 44 nM.

**Q.** How did the IC50 turn out when CC(C)CCc1nc2ccc(-c3cnco3)cc2o1 [Example 100, 2-isopentyl-6-(oxazol-5-yl)benzo[d]oxazole] was run?
**A.** The IC50 was 1020 nM.

same assay, conditions: ATP 22 μM; GST-Xa-hAAK1 3.5 nM; room temperature for 3 hours; Caliper LabChip 3000; read-out: AAK1 IC50

**Q.** Which IC50 does the source give for CC(C)CCc1nc2cc(-c3ccncc3)ccc2o1 [Example 89, 2-isopentyl-5-(pyridin-4-yl)benzo[d]oxazole] here?
**A.** The IC50 was 327 nM.

**Q.** Which IC50 does the source give for c1cc(-c2ccc3oc(CC4CCCC4)nc3c2)ccn1 [Example 90, 2-(cyclopentylmethyl)-5-(pyridin-4-yl)benzo[d]oxazole] here?
**A.** Its IC50 is 818 nM.

**Q.** NC(CC(C(F)(F)F)C(F)(F)F)c1nc2cc(-c3ccncc3)ccc2o1 (stereo not shown) [Example 91, 4,4,4-trifluoro-1-(5-(pyridin-4-yl)benzo[d]oxazol-2-yl)-3-(trifluoromethyl)butan-1-amine] was tested. Which IC50 did it give?
**A.** Its IC50 is 391 nM.

**Q.** How did the IC50 turn out when c1cc(-c2ccc3oc(CCC4CCCC4)nc3c2)ccn1 [Example 92, 2-(2-cyclopentylethyl)-5-(pyridin-4-yl)benzo[d]oxazole] was run?
**A.** Its IC50 is 1700 nM.

**Q.** NC(CCC(F)(F)F)c1nc2cc(-c3ccncc3)ccc2o1 (stereo not shown) [Example 93, 4,4,4-trifluoro-1-(5-(pyridin-4-yl)benzo[d]oxazol-2-yl)butan-1-amine] was tested. Which IC50 did it give?
**A.** Its IC50 is 136 nM.

**Q.** Which IC50 does the source give for COc1cnccc1-c1ccc2oc(C(N)CC(C)C)nc2c1 (stereo not shown) [Example 94, 1-(5-(3-methoxypyridin-4-yl)benzo[d]oxazol-2-yl)-3-methylbutan-1-amine] here?
**A.** The IC50 was 294 nM.

**Q.** Which IC50 does the source give for CC(C)CC(N)c1nc2cc(-c3ccncc3)ccc2s1 (stereo not shown) [Example 95, 3-methyl-1-(5-(pyridin-4-yl)benzo[d]thiazol-2-yl)butan-1-amine] here?
**A.** The IC50 was 100 nM.

**Q.** How did the IC50 turn out when CC(C)C[C@@H](N)c1nc2cc(-c3ccncc3)ccc2s1 [Example 96, (R)-3-methyl-1-(5-(pyridin-4-yl)benzo[d]thiazol-2-yl)butan-1-amine] was run?
**A.** The IC50 was 797 nM.

**Q.** Which IC50 does the source give for c1cc(-c2ccc3[nH]c(CC4CCCC4)nc3c2)ccn1 [Example 99, 2-(cyclopentylmethyl)-5-(pyridin-4-yl)-1H-benzo[d]imidazole] here?
**A.** Its IC50 is 105 nM.

**Q.** Which IC50 does the source give for CN[C@H](CC(C)C)c1nc2ccc(-c3cnco3)cc2[nH]1 [Example 101, (R)-N,3-dimethyl-1-(6-(oxazol-5-yl)-1H-benzo[d]imidazol-2-yl) butan-1-amine] here?
**A.** The IC50 was 34 nM.

**Q.** For COCCN[C@H](CC(C)C)c1nc2cc(-c3cnco3)ccc2[nH]1 [Example 102, (R)-N-(2-methoxyethyl)-3-methyl-1-(5-(oxazol-5-yl)-1H-benzo[d]imidazol-2-yl)butan-1-amine], which IC50 is on record?
**A.** Its IC50 is 680 nM.

**Q.** Which IC50 does the source give for CC(C)CC(C)(N)c1nc2ccc(-c3cnco3)cc2[nH]1 (stereo not shown) [Example 103, 4-methyl-2-(6-(oxazol-5-yl)-1H-benzo[d]imidazol-2-yl)pentan-2-amine] here?
**A.** Its IC50 is 158 nM.

**Q.** Which IC50 does the source give for NC(CC(C(F)(F)F)C(F)(F)F)c1nc2ccc(-c3cnco3)cc2[nH]1 (stereo not shown) [Example 104, 4,4,4-trifluoro-1-(6-(oxazol-5-yl)-1H-benzo[d]imidazol-2-yl)-3-(trifluoromethyl)butan-1-amine] here?
**A.** The IC50 was 381 nM.

**Q.** Which IC50 does the source give for NC(CCC(F)(F)F)c1nc2ccc(-c3cnco3)cc2[nH]1 (stereo not shown) [Example 105, 4,4,4-trifluoro-1-(6-(oxazol-5-yl)-1H-benzo[d]imidazol-2-yl)butan-1-amine] here?
**A.** The IC50 was 150 nM.

**Q.** For CC(C)CCc1nc2ccc(-c3ccncc3)cc2[nH]1 [Example 106, 2-isopentyl-6-(pyridin-4-yl)-1H-benzo[d]imidazole], which IC50 is on record?
**A.** The IC50 was 115 nM.

**Q.** Which IC50 does the source give for CNC(CC(C)C)c1nc2cc(-c3cnco3)c(OC)cc2[nH]1 (stereo not shown) [Example 107, 1-(6-methoxy-5-(oxazol-5-yl)-1H-benzo[d]imidazol-2-yl)-N,3-dimethylbutan-1-amine] here?
**A.** The IC50 was 16 nM.

**Q.** With COc1cc2[nH]c(C(C)(N)CC(C)C)nc2cc1-c1cnco1 (stereo not shown) [Example 108, 2-(6-methoxy-5-(oxazol-5-yl)-1H-benzo[d]imidazol-2-yl)-4-methylpentan-2-amine] as the compound, how does the IC50 read?
**A.** The IC50 was 60 nM.

**Q.** Which IC50 does the source give for “(R)-1-(5-(1H-pyrazolo[3, 4-b]pyridin-4-yl)-1H-benzo[d]imidazol-2-yl)-3-methylbutan-1-amine [Example 7]” here?
**A.** Its IC50 is 10 nM.

same assay, conditions: read-out: AAK1 IC50

**Q.** Which IC50 does the source give for CN[C@H](CC(C)C)c1nc2cc(-c3ccnnc3)ccc2[nH]1 [Example 109, (R)-N,3-dimethyl-1-(5-(pyridazin-4-yl)-1H-benzo[d]imidazol-2-yl)butan-1-amine] here?
**A.** Its IC50 is 428 nM.
